Literature values as cited in patent US20030165566A1, “Sedative non-benzodiazepine formulations” (priority 2002, published 2003).
Counter-ions that a name gives are not always drawn. Like-named read-outs stand apart in the source and are kept apart here.

Experiments:
[1] = in vivo
[2] = 10 mg
[3] = single 20 mg oral dose, elderly (>70 years) vs 20 to 40 years
[4] = single 20 mg oral dose, elderly subjects (>70 years)
[5] = single 20 mg oral dose, younger adults (20 to 40 years)
[6] = 20 minutes after a meal vs fasting

| SMILES | half-life [1] | increase of mean AUC, elderly vs younger adults [3] | increase of mean Cmax, elderly vs younger adults [3] | increase of mean T1/2, elderly vs younger adults [3] | mean AUC [4] | mean Cmax [4] | mean T1/2 [4] | mean AUC [5] | mean Cmax [5] | mean T1/2 [5] | mean Tmax ([2]; 20 minutes after a meal) | decrease of mean AUC with food [2, 6] | decrease of mean Cmax with food [2, 6] | half-life with food [2, 6] | prolongation of mean Tmax with food [2, 6] | mean Tmax ([2]; fasting) | accumulation (elderly subjects, nightly oral dosing 10 mg for 1 week) |
| --- | --- | --- | --- | --- | --- | --- | --- | --- | --- | --- | --- | --- | --- | --- | --- | --- | --- |
| Cc1ccc(-c2nc3ccc(C)cn3c2CC(=O)N(C)C)cc1 [Zolpidem] | approximately 2.5 hours | 64% | 50% | 32% | 1,562 ng/hr/ml | 284 ng/mL | 2.9 h | 955 ng/h/mL | 255 ng/mL | 2.2 h |  |  |  |  |  |  |  |
| Cc1ccc(-c2nc3ccc(C)cn3c2CC(=O)N(C)C)cc1 [zolpidem tartrate] |  |  |  |  |  |  |  |  |  |  | 2.2 h | 15% | 25% | remained unchanged | 60% | 1.4 h | did not accumulate |
